In general, IC50 refers to the concentration needed to halve the response being measured.

The record followed here is patent publication US20040266784A1, “Calcium channel inhibitors comprising benzhydril spaced from piperazine” (priority 1998, published 2004).

This experiment deals with T1, rat N-type channels (α1B+α2δ+β1b subunits) (Rattus norvegicus, UniProt Q02294).
T1 construct: expressed in transfected cells
Put plainly: Whole cell patch clamp, N-type calcium channel block in HEK 293 cells. Format: cell-based. The protocol: Antagonist activity was measured using whole cell patch recordings on human embryonic kidney cells either stably or transiently expressing rat N-type channels (α1B+[…]+β1b subunits) with 5 mM barium as a charge carrier. Alternatively, cells either stably or transiently expressing rat L-type channels (α1C+α2δ+β1b cDNA subunits) and P/Q-type channels (α1A+α2δ+β1b cDNA subunits)
HEK 293 cells were transfected by a standard calcium-phosphate-DNA coprecipitation method using the rat α1B+β1b+α2δ N-type calcium channel subunits in a vertebrate expression vector (for example, see Current Protocols in Molecular Biology).
After an incubation period of from 24 to 72 hrs the culture medium was removed and replaced with external recording solution (see below). Whole cell patch clamp experiments were performed using an Axopatch 200B amplifier (Axon Instruments, Burlingame, Calif.) linked to an IBM compatible personal computer equipped with pCLAMP software. […] Current data shown were elicited by a train of 100 ms test pulses at 0.066 Hz from −100 mV and/or −80 mV to various potentials (min. −20 mV, max. +30 mV). Drugs were perfused directly into the vicinity of the cells using a microperfusion system.
Normalized dose-response curves were fit (Sigmaplot 4.0, SPSS Inc., Chicago, Ill.) by the Hill equation to determine IC50 values. Steady-state inactivation curves were plotted as the normalized test pulse amplitude following 5 s inactivating prepulses at +10 mV increments.
Alternatively, N-type calcium channels (α1B+α2δ+β1b cDNA subunits), L-type channels (α1C+α2δ+β1b cDNA subunits) and P/Q-type channels (α1A+α2δ+β1b cDNA subunits) were transiently expressed in HEK 293 cells. Briefly, cells were cultured in Dulbecco's modified eagle medium (DMEM) supplemented with 10% fetal bovine serum, 200 U/ml penicillin and 0.2 mg/ml streptomycin at 37° C. with 5% CO2. […] At 12 hours the medium was replaced and the cells transiently transfected using a standard calcium phosphate protocol and the appropriate calcium channel cDNAs. Fresh DMEM was supplied and the cells transferred to 28° C./5% CO2.
Whole cell patch clamp experiments were performed using an Axopatch 200B amplifier (Axon Instruments, Burlingame, Calif.) linked to a personal computer equipped with pCLAMP software. […] Currents were typically elicited from a holding potential of −80 mV to +10 mV using Clampex software (Axon Instruments). […] The compounds were then applied during the low frequency pulse trains for two to three minutes to assess tonic block, and subsequently the pulse frequency was increased to 0.2 Hz to assess frequency dependent block. Data were analyzed using Clampfit (Axon Instruments) and SigmaPlot 4.0 (Jandel Scientific).
For orientation: In patch-clamp work, channel activity is measured electrically.

Setting [1] is: 0.067 Hz, read-out: IC50 for N-type Calcium Channel Block (0.067 Hz).
[2] abbreviates: 0.2 Hz, read-out: IC50 for N-type Calcium Channel Block (0.2 Hz).

Like-named read-outs stand apart in the source and are kept apart here.

T1 sequence (Q02294 whole entry): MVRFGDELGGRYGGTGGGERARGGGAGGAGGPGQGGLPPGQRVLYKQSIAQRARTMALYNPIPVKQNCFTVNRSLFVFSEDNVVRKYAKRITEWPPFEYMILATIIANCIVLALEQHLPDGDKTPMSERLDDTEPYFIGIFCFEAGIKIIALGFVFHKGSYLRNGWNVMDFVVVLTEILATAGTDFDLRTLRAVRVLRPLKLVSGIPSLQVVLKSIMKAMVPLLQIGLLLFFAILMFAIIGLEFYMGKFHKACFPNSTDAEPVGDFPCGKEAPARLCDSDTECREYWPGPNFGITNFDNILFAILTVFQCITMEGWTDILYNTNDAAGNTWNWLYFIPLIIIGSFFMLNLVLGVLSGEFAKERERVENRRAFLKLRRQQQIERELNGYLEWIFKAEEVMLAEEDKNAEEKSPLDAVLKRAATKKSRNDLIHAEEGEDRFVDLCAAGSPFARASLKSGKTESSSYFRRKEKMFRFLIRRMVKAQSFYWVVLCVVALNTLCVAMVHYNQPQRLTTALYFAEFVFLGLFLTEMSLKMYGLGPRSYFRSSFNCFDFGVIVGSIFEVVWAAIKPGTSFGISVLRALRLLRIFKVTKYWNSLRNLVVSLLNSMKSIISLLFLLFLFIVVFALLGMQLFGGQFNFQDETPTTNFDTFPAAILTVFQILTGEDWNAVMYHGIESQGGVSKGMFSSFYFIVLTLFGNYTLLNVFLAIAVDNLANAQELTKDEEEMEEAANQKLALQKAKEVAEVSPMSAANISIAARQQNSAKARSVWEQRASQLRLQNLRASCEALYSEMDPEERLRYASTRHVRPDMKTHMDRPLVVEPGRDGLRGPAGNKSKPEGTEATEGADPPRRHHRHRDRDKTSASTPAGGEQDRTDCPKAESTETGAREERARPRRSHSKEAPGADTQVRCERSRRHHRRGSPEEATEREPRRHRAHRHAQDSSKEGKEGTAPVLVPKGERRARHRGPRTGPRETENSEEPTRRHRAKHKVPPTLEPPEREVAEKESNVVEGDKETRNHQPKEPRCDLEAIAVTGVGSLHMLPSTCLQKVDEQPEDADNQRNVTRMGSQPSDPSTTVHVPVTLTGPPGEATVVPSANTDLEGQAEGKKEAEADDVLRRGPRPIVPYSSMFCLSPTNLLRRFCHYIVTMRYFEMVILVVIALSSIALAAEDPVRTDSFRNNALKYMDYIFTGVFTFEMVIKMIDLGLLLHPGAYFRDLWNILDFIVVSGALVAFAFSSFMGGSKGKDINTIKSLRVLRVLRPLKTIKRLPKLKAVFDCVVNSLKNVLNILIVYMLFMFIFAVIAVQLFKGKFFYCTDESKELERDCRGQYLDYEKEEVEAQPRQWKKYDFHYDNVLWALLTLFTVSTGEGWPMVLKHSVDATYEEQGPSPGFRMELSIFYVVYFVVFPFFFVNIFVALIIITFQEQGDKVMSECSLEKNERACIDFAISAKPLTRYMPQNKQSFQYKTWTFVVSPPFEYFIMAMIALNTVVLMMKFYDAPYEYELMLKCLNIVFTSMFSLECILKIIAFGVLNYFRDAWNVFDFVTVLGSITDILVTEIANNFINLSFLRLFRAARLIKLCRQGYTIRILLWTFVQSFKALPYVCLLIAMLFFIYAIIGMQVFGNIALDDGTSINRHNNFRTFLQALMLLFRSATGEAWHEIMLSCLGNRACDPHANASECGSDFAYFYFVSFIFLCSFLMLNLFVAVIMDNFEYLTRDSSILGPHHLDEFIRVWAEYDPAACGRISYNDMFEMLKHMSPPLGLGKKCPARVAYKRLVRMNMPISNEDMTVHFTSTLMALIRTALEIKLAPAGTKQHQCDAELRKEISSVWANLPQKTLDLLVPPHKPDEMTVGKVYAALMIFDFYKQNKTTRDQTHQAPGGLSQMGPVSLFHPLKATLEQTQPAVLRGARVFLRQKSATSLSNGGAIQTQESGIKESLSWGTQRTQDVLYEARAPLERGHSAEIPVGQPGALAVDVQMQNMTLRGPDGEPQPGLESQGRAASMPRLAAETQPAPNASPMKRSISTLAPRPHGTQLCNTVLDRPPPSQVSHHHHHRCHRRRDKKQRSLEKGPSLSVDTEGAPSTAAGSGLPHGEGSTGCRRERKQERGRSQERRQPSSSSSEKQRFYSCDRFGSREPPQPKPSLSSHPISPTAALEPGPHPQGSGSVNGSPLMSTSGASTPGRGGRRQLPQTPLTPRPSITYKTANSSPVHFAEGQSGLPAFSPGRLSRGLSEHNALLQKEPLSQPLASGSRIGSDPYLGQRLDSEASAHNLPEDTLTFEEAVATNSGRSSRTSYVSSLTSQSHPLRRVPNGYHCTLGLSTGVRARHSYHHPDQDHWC
T1 sequence (P54290 25-944 partner limits assumed): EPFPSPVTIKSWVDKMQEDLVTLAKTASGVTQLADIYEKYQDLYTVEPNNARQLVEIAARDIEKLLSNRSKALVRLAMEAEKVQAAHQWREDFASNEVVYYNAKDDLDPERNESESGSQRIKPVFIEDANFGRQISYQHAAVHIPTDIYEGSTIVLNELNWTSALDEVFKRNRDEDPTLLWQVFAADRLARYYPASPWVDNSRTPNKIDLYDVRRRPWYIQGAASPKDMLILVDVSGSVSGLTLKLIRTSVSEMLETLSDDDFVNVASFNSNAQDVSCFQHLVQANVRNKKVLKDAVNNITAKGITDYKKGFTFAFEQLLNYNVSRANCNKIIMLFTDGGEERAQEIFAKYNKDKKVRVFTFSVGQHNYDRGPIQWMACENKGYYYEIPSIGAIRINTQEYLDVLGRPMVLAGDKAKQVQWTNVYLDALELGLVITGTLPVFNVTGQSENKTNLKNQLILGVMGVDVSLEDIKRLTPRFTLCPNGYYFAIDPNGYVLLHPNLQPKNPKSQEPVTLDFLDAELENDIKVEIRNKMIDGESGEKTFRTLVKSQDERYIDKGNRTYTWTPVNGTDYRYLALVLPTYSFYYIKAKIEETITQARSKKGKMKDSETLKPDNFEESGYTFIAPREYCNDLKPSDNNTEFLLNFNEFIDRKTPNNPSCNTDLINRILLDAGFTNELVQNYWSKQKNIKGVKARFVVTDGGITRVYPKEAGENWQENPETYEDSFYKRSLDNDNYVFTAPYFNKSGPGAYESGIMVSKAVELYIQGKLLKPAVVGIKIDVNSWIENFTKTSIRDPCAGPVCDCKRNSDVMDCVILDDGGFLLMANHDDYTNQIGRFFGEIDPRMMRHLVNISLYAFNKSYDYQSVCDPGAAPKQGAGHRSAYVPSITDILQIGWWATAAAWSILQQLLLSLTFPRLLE
T1 sequence (P54290 945-1091 partner limits assumed): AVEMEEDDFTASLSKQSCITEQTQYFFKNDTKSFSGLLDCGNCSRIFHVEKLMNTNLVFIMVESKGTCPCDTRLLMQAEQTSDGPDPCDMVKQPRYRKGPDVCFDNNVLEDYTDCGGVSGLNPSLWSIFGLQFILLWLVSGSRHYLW
T1 sequence (P54283 whole entry partner): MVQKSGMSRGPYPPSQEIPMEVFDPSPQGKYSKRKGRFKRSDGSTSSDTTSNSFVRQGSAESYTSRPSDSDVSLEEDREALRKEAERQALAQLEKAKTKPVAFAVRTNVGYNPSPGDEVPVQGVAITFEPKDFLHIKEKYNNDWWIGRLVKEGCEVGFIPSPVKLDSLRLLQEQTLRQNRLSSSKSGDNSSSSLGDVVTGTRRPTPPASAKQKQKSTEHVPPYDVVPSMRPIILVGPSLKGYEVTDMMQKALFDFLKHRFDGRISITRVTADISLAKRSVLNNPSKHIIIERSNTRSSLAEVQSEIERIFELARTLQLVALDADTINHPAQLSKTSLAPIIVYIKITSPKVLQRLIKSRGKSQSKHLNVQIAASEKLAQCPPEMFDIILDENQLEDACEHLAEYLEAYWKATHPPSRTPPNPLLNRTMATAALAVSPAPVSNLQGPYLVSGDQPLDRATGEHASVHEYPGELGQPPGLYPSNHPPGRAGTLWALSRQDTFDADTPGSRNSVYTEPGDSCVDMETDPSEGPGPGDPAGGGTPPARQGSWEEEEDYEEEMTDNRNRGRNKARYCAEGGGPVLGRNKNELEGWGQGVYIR

Take `CC(C)(C)c1cc(C(=O)N2CCN(C(=O)CCCCC(c3ccc(F)cc3)c3ccc(F)cc3)CC2)cc(C(C)(C)C)c1O` [Compound P28]: the IC50 came out at 379 nM under setting [1] and 217 nM under setting [2].
For the compound `Fc1ccc(C(CCCCCN2CCN(c3nc4ccccc4s3)CC2)c2ccc(F)cc2)cc1` [Compound P32], the concentration for half-maximal inhibition (IC50) is, setting by setting: under setting [1], 345 nM; under setting [2], 245 nM.
As to `COc1cc(CN2CCN(CCCCCCCCC(c3ccc(F)cc3)c3ccc(F)cc3)CC2)cc(OC)c1OC` [Compound P40], the IC50 stood at 286 nM under setting [1] and 214 nM under setting [2].
Take `COc1cc(C(=O)N2CCN(C(=O)CCCC(O)C(c3ccc(F)cc3)c3ccc(F)cc3)CC2)cc(OC)c1OC` (stereo not shown) [Compound P44, 6,6-bis-(4-fluoro-phenyl)-5-hydroxy-1-[4-(3,4,5-trimethoxy-benzoyl)-piperazin-1-yl]-hexan-1-one]: the IC50 is, setting by setting: under setting [1], 280 nM; under setting [2], 180 nM.
With `COc1cc(C(=O)N2CCN(C(=O)CCCCC(O)(c3ccc(F)cc3)c3ccc(F)cc3)CC2)cc(OC)c1OC` [Compound P46, 6,6-bis-(4-fluoro-phenyl)-6-hydroxy-1-[4-(3,4,5,-trimethoxy-benzoyl)-piperazin-1-yl]-hexan-1-one], the IC50 under setting [1] amounted to 430 nM and the IC50 under setting [2] amounted to 340 nM.
On to `COc1cc(CN2CCN(C(=O)CCCCC(c3ccc(F)cc3)c3ccc(F)cc3)CC2=O)cc(OC)c1OC` [Compound P48, 4-[6,6-bis-(4-fluoro-phenyl)-hexanoyl]-1-(3,4,5,-trimethoxy-benzyl)-piperazin-2-one], for which the IC50 was determined as 102 nM under setting [1] and 56 nM under setting [2].
The matching figures for `COc1c(C(C)(C)C)cc(CN2CCN(C(=O)CCCCC(c3ccc(F)cc3)c3ccc(F)cc3)CC2=O)cc1C(C)(C)C` [Compound P52]: 400 nM and 370 nM.
With `O=C1CN(C(=O)CCCCC(c2ccc(F)cc2)c2ccc(F)cc2)CCN1CCOc1ccc(F)cc1` [Compound P53], the IC50 by setting is: under setting [1], 200 nM; under setting [2], 980 nM.
Consider `COc1c(C(C)(C)C)cc(C(=O)N2CCN(CCCCCC(c3ccc(F)cc3)c3ccc(F)cc3)C(=O)C2)cc1C(C)(C)C` [Compound P54], for which the IC50 runs as follows: under setting [1], 120 nM; under setting [2], 76 nM.
The matching figures for `COc1c(C(C)(C)C)cc(C(=O)N2CCN(C(=O)CCCCC(c3ccc(F)cc3)c3ccc(F)cc3)CC2=O)cc1C(C)(C)C` [Compound P55]: 190 nM and 150 nM.
In the case of `CC(C)(C)c1cc(C(=O)N2CCN(C(=O)CCCCC(c3ccc(F)cc3)c3ccc(F)cc3)C(=O)C2)cc(C(C)(C)C)c1O` [Compound P57], the IC50 under setting [1] was determined as 600 nM and the IC50 under setting [2] amounted to 400 nM.
Consider `COc1ccc(OCCN2CCN(C(=O)CCCCC(c3ccc(F)cc3)c3ccc(F)cc3)CC2)cc1OC` [Compound P59, 1-{4-[2-(3,4-dimethoxy-phenoxy)ethyl]-piperazin-1-yl}-6,6-bis-(4-fluoro-phenyl)-hexan-1-one], for which the IC50 is, setting by setting: under setting [1], 810 nM; under setting [2], 430 nM.
The corresponding values for `COc1ccc(OCCN2CCN(CCCCCC(c3ccc(F)cc3)c3ccc(F)cc3)CC2)cc1OC` [Compound P60, 1-[6,6-bis-(4-fluoro-phenyl)-hexyl]-4-[2-(3,4,-dimethoxy-phenoxy)-ethyl]-piperazine] are 970 nM and 790 nM.
For `COc1cc(CN2CCN(CCCCCC(c3ccc(F)cc3)c3ccc(F)cc3)[C@@H](C(=O)O)C2)cc(OC)c1OC` [Compound P61], the IC50 runs as follows: under setting [1], 610 nM; under setting [2], 520 nM.
Consider `CCOC(=O)C1CN(CCCCCC(c2ccc(F)cc2)c2ccc(F)cc2)CCN1Cc1cc(OC)c(OC)c(OC)c1` (stereo not shown) [Compound P62], for which the IC50 by setting is: under setting [1], 680 nM; under setting [2], 410 nM.
`COc1ccc(CN2CCN(CCCCCC(c3ccc(F)cc3)c3ccc(F)cc3)CC2)cc1OC` [Compound P63]: the IC50 under setting [1] is 319 nM and the IC50 under setting [2] worked out at 258 nM.
Regarding `COc1ccc(C(=O)N2CCN(C(=O)CCCCC(c3ccc(F)cc3)c3ccc(F)cc3)CC2)cc1OC` [Compound P64], the IC50 turned out to be 541 nM under setting [1] and 390 nM under setting [2].
For `Fc1ccc(C(CCCCCN2CCN(CCOc3ccc4c(c3)OCO4)CC2)c2ccc(F)cc2)cc1` [Compound P65], the IC50 by setting is: under setting [1], 705 nM; under setting [2], 517 nM.
As to `COc1cc(OCCN2CCN(CCCCCC(c3ccc(F)cc3)c3ccc(F)cc3)CC2)cc(OC)c1OC` [Compound P66], the IC50 worked out at 800 nM under setting [1] and 550 nM under setting [2].
As for `Cc1cc(OC[C@@H](O)CN2CCN(CCCCCC(c3ccc(F)cc3)c3ccc(F)cc3)CC2)c(C)c(C)c1N` [Compound P67], the IC50 is 1050 nM under setting [1] and 928 nM under setting [2].
The corresponding values for `Cc1cc(OC[C@@H](O)CN2CCN(C(=O)CCCCC(c3ccc(F)cc3)c3ccc(F)cc3)CC2)c(C)c(C)c1N` [Compound P68] are 1580 nM and 975 nM.
As for `O=C(CCCCC(c1ccc(F)cc1)c1ccc(F)cc1)N1CCN(c2nc3ccccc3s2)CC1` [Compound P69], the IC50 by setting is: under setting [1], 502 nM; under setting [2], 410 nM.
For the compound `Fc1ccc(C(CCCCCN2CCN(Cc3cc(C(F)(F)F)cc(C(F)(F)F)c3)CC2)c2ccc(F)cc2)cc1` [Compound P70], the IC50 stood at 1040 nM under setting [1] and 1060 nM under setting [2].
As for `O=C(CCCCC(c1ccc(F)cc1)c1ccc(F)cc1)N1CCN(C(=O)c2cc(C(F)(F)F)cc(C(F)(F)F)c2)CC1` [Compound P71], the IC50 came to 870 nM under setting [1] and 510 nM under setting [2].
For `CC(C)(C)c1ccc(C(=O)N2CCN(C(=O)CCCCC(c3ccc(F)cc3)c3ccc(F)cc3)CC2)cc1` [Compound P72], the IC50 under setting [1] worked out at 808 nM and the IC50 under setting [2] worked out at 630 nM.
Regarding `Fc1ccc(C(CCCCCN2CCN(Cc3ccc(Br)cc3)CC2)c2ccc(F)cc2)cc1` [Compound P73], the IC50 is 439 nM under setting [1] and 377 nM under setting [2].
Consider `Fc1ccc(C(CCCCCN2CCN(CCSc3nc4ccccc4s3)CC2)c2ccc(F)cc2)cc1` [Compound P74], for which the IC50 by setting is: under setting [1], 660 nM; under setting [2], 430 nM.
Consider `COc1cc(C(=O)N2CCN(C(=O)CCCCC(c3ccc(F)cc3)c3ccc(F)cc3)CC2)cc(OC)c1O` [Compound P75], for which the IC50 stood at 839 nM under setting [1] and 603 nM under setting [2].
For the compound `Oc1c(Br)cc(CN2CCN(CCCCCC(c3ccc(F)cc3)c3ccc(F)cc3)CC2)cc1Br` [Compound P76], the IC50 reads like this: under setting [1], 680 nM; under setting [2], 514 nM.
As to `Fc1ccc(C(CCCCCN2CCN(Cc3ccc(OC(F)(F)F)cc3)CC2)c2ccc(F)cc2)cc1` [Compound P77], the IC50 by setting is: under setting [1], 280 nM; under setting [2], 220 nM.
The matching figures for `COc1cc(CNCCN2CCN(CCCCCC(c3ccc(F)cc3)c3ccc(F)cc3)CC2)cc(OC)c1OC` [Compound P78]: 64 nM and 30 nM.
The corresponding values for `O=C(CCCCC(c1ccc(F)cc1)c1ccc(F)cc1)N1CCN(CCOc2ccc(F)cc2)CC1` [Compound P79] are 579 nM and 423 nM.
Take `O=C(CCCCC(c1ccc(F)cc1)c1ccc(F)cc1)N1CCN(CCNc2ccccc2)CC1` [Compound P80]: the IC50 was determined as 960 nM under setting [1] and 660 nM under setting [2].
The matching figures for `COc1cc(CN2CCN(CCCCCC(c3ccc(F)cc3)c3ccc(F)cc3)CC2)cc(OC)c1O` [Compound P101]: 277 nM and 203 nM.
On to `COc1cc(CN2CCN(C(=O)CCCCCCCC(c3ccccc3)c3ccccc3)CC2)cc(OC)c1OC` [Compound P102], for which the IC50 worked out at 419 nM under setting [1] and 292 nM under setting [2].
